Results taken from ChEMBL document CHEMBL4024717, “Anthranilamide-based 2-phenylcyclopropane-1-carboxamides, 1,1'-biphenyl-4-carboxamides and 1,1'-biphenyl-2-carboxamides: Synthesis biological evaluation and mechanism of action” (Eur J Med Chem, 2017).
Activity calls are given as the source filed them. The rule behind the calls is not given here.

Tests used:
K562 [1] = test: Growth inhibition of human K562 cells at 10 uM after 24 hrs by MTT assay relative to control; type: functional; details: K562, 24 h, read-out: GI
[2] = target: Serine-protein kinase ATM (Homo sapiens) (UniProt Q13315); test: Activation of ATM phosphorylation in human K562 cells assessed as ratio of phosphorylated H2AX at S139 to beta-tubulin level at 2.5 uM after 48 hrs by Western blot analysis (reference value: 0.8); type: cell-based
Sequence of Serine-protein kinase ATM (Homo sapiens) (Q13315 whole entry): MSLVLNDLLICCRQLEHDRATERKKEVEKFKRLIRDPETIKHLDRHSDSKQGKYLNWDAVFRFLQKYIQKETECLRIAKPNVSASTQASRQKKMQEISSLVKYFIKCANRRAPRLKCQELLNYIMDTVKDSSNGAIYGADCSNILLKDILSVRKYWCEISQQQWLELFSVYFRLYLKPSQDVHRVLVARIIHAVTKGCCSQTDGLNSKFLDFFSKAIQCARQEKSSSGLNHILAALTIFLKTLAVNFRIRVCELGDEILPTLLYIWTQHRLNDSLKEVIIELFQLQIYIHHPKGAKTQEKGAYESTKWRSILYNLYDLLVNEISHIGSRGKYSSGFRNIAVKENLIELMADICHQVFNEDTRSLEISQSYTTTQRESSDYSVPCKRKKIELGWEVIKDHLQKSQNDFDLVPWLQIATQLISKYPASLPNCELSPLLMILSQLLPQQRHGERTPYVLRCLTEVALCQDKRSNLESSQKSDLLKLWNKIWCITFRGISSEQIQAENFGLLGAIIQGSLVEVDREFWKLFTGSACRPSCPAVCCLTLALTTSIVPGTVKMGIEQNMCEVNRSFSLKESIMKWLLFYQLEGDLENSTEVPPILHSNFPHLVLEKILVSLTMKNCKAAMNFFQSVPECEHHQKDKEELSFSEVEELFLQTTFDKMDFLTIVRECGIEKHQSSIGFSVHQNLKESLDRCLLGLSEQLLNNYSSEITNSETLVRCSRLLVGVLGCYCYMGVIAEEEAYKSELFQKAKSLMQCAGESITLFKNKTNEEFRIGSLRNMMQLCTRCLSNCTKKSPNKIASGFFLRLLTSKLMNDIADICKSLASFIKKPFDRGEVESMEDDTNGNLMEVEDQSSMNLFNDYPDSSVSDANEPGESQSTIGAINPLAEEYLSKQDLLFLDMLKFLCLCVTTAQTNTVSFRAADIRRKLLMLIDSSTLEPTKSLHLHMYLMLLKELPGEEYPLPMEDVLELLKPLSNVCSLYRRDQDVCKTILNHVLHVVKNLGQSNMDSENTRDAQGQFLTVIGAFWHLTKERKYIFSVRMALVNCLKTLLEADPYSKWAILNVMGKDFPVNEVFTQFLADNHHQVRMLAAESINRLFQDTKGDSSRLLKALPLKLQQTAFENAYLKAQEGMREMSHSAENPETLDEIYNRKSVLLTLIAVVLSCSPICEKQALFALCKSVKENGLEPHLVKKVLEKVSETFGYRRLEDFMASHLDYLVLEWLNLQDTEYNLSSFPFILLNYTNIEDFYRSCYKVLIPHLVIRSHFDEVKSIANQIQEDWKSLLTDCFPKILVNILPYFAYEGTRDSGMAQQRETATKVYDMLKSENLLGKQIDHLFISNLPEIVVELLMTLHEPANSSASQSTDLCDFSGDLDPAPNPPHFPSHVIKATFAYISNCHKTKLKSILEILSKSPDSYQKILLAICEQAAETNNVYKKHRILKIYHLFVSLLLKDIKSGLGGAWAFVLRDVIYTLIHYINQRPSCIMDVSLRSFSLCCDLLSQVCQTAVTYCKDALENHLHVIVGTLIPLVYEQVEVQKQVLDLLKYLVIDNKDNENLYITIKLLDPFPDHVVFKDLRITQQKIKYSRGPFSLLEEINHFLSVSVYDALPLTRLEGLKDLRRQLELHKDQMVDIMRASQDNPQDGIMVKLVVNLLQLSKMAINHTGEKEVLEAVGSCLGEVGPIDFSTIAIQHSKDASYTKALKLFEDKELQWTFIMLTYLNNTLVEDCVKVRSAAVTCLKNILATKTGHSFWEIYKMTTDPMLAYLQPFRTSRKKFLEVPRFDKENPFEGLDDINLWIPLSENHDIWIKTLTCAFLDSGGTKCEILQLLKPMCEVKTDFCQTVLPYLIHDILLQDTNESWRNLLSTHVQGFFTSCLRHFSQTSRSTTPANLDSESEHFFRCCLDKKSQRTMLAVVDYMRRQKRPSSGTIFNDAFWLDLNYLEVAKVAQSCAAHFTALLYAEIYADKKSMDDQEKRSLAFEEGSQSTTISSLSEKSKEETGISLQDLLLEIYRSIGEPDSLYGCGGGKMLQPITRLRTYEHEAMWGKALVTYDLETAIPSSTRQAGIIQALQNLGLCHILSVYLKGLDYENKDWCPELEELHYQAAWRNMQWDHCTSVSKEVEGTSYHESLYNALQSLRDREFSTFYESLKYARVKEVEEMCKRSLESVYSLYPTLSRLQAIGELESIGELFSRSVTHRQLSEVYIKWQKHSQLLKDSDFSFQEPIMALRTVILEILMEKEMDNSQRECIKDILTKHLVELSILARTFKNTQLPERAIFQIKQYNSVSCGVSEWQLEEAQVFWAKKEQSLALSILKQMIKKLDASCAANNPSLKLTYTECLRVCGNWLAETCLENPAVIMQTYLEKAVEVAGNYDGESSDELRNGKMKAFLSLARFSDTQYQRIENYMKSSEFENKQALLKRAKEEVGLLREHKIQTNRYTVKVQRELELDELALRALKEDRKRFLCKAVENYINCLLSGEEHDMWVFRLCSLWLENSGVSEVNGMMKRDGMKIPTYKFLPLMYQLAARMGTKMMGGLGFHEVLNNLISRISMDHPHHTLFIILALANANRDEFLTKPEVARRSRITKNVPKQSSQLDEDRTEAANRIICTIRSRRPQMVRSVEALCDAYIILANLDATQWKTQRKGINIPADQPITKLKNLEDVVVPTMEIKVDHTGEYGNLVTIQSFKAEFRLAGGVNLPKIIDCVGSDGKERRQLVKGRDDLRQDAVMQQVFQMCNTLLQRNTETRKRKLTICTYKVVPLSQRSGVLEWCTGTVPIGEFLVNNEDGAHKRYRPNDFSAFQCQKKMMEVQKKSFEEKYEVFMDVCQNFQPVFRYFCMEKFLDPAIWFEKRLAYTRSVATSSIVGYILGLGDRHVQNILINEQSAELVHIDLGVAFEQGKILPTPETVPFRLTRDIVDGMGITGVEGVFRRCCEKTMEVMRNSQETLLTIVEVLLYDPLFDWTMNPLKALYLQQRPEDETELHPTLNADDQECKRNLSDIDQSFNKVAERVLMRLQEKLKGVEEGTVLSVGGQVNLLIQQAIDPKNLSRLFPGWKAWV

K562 [3] = test: Cell cycle arrest in human K562 cells assessed as accumulation at G2/M phase at 750 nM after 24 hrs by propidium iodide staining based flow cytometry (reference value: 13.3%); type: functional
K562 [4] = test: Induction of morphological changes in human K562 cells assessed as cellular fragmentation at 0.75 to 2.5 uM after 48 hrs by light microscopic method; type: functional, cell-based
[5] = target: T1, c-Jun N-terminal kinase, JNK (Homo sapiens) (UniProt P45983+P53779+P45984); test: Induction of JNK phosphorylation in human K562 cells assessed as ratio of phosphorylated JNK to beta-tubulin at 2.5 uM after 48 hrs by Western blot analysis (reference value: 1); type: cell-based
K562 [6] = test: Cell cycle arrest in human K562 cells assessed as accumulation at G0/G1 phase at 2.5 uM after 24 hrs by propidium iodide staining based flow cytometry (reference value: 68.8%); type: functional
K562 [7] = test: Cell cycle arrest in human K562 cells assessed as accumulation at G0/G1 phase at 750 nM after 48 hrs by propidium iodide staining based flow cytometry (reference value: 67.4%); type: functional
[8] = Selectivity index, ratio of IC50 for human 16HBE cells to IC50 for human K562 cells; type: functional
K562 [9] = test: Induction of apoptosis in human K562 cells assessed as ratio of procaspase-3 to beta actin level at 2.5 uM after 48 hrs by Western blot analysis (reference value: 0.9); type: functional
[10] = Selectivity index, ratio of IC50 for human 16HBE cells to IC50 for human HT-29 cells; type: functional
K562 [11] = test: Induction of reactive oxygen species generation in human K562 cells at 0.75 to 2.5 uM after 5 to 24 hrs by H2DCFDA staining based fluorescence microscopic analysis; type: functional, cell-based
[12] = target: T1, c-Jun N-terminal kinase, JNK (Homo sapiens); test: Induction of JNK phosphorylation in human K562 cells assessed as ratio of phosphorylated JNK to beta-tubulin at 750 nM after 24 hrs by Western blot analysis (reference value: 1); type: cell-based
K562 [13] = test: Cell cycle arrest in human K562 cells assessed as accumulation at sub G0/G1 phase at 750 nM after 48 hrs by propidium iodide staining based flow cytometry (reference value: 1.1%); type: functional
K562 [14] = test: Cell cycle arrest in human K562 cells assessed as accumulation at sub G0/G1 phase at 750 nM after 24 hrs by propidium iodide staining based flow cytometry (reference value: 3.1%); type: functional
K562 [15] = test: Induction of morphological changes in human K562 cells assessed as appearance of shrunken cytoplasm at 0.75 to 2.5 uM after 24 hrs by light microscopic method; type: functional, cell-based
[16] = target: Serine-protein kinase ATM (Homo sapiens) (UniProt Q13315); test: Activation of ATM phosphorylation in human K562 cells assessed as ratio of phosphorylated ATM to beta-tubulin level at 2.5 uM after 24 hrs by Western blot analysis (reference value: 0.2); type: cell-based
HT-29 = test: Cytotoxicity against human HT-29 cells after 24 hrs by MTT assay; type: functional, cell-based; details: HT-29, 24 h
[17] = target: Serine-protein kinase ATM (Homo sapiens) (UniProt Q13315); test: Activation of ATM phosphorylation in human K562 cells assessed as ratio of phosphorylated H2AX at S139 to beta-tubulin level at 750 nM after 48 hrs by Western blot analysis (reference value: 0.8); type: cell-based
K562 [18] = test: Cell cycle arrest in human K562 cells assessed as accumulation at G0/G1 phase at 2.5 uM after 48 hrs by propidium iodide staining based flow cytometry (reference value: 67.4%); type: functional
K562 [19] = test: Cell cycle arrest in human K562 cells assessed as accumulation at G0/G1 phase at 750 nM after 24 hrs by propidium iodide staining based flow cytometry (reference value: 68.8%); type: functional
K562 [20] = test: Cell cycle arrest in human K562 cells assessed as accumulation at sub G0/G1 phase at 2.5 uM after 24 hrs by propidium iodide staining based flow cytometry (reference value: 3.1%); type: functional
K562 [21] = test: Cell cycle arrest in human K562 cells assessed as accumulation at G2/M phase at 2.5 uM after 24 hrs by propidium iodide staining based flow cytometry (reference value: 13.3%); type: functional
K562 [22] = test: Cell cycle arrest in human K562 cells assessed as accumulation at G2/M phase at 2.5 uM after 48 hrs by propidium iodide staining based flow cytometry (reference value: 17.7%); type: functional
[23] = target: Serine-protein kinase ATM (Homo sapiens) (UniProt Q13315); test: Activation of ATM phosphorylation in human K562 cells assessed as ratio of phosphorylated ATM to beta-tubulin level at 750 nM after 48 hrs by Western blot analysis (reference value: 0.2); type: cell-based
K562 [24] = test: Induction of morphological changes in human K562 cells assessed as reduction in cell number at 0.75 to 2.5 uM after 24 hrs by light microscopic method; type: functional, cell-based
K562 [25] = test: Induction of apoptosis in human K562 cells assessed as DNA fragmentation at 0.75 to 2.5 uM after 24 to 48 hrs by Hoechst 33342/DAPI staining based fluorescence microscopic analysis; type: functional, cell-based
K562 [26] = test: Induction of apoptosis in human K562 cells assessed as ratio of procaspase-3 to beta actin level at 2.5 uM after 24 hrs by Western blot analysis (reference value: 1); type: functional
K562 [27] = test: Cell cycle arrest in human K562 cells assessed as accumulation at G2/M phase at 750 nM after 48 hrs by propidium iodide staining based flow cytometry (reference value: 17.7%); type: functional
K562 [28] = test: Induction of apoptosis in human K562 cells assessed as ratio of procaspase-3 to beta actin level at 750 nM after 24 hrs by Western blot analysis (reference value: 1); type: functional
[29] = target: Serine-protein kinase ATM (Homo sapiens) (UniProt Q13315); test: Activation of ATM phosphorylation in human K562 cells assessed as ratio of phosphorylated H2AX at S139 to beta-tubulin level at 750 nM after 24 hrs by Western blot analysis (reference value: 1); type: cell-based
K562 [30] = test: Induction of morphological changes in human K562 cells assessed as reduction in cell volume at 0.75 to 2.5 uM after 24 hrs by light microscopic method; type: functional, cell-based
K562 [31] = test: Induction of reactive oxygen species generation in human K562 cells at 0.75 to 2.5 uM after 48 hrs by H2DCFDA staining based fluorescence microscopic analysis; type: functional, cell-based
[32] = target: Serine-protein kinase ATM (Homo sapiens) (UniProt Q13315); test: Activation of ATM phosphorylation in human K562 cells assessed as ratio of phosphorylated ATM to beta-tubulin level at 2.5 uM after 48 hrs by Western blot analysis (reference value: 0.2); type: cell-based
K562 [33] = test: Cytotoxicity against human K562 cells after 24 hrs by MTT assay; type: functional, cell-based; details: K562, 24 h
K562 [34] = test: Induction of apoptosis in human K562 cells assessed as ratio of procaspase-3 to beta actin level at 750 nM after 48 hrs by Western blot analysis (reference value: 0.9); type: functional
K562 [35] = test: Cytotoxicity against human K562 cells after 48 hrs by MTT assay; type: functional, cell-based; details: K562, 48 h
K562 [36] = test: Cell cycle arrest in human K562 cells assessed as accumulation at sub G0/G1 phase at 2.5 uM after 48 hrs by propidium iodide staining based flow cytometry (reference value: 1.1%); type: functional
MDA-MB-231 = test: Cytotoxicity against human MDA-MB-231 cells after 24 hrs by MTT assay; type: functional, cell-based; details: MDA-MB-231, 24 h
[37] = target: T1, c-Jun N-terminal kinase, JNK (Homo sapiens); test: Induction of JNK phosphorylation in human K562 cells assessed as ratio of phosphorylated JNK to beta-tubulin at 750 nM after 48 hrs by Western blot analysis (reference value: 1); type: cell-based
[38] = target: T1, c-Jun N-terminal kinase, JNK (Homo sapiens); test: Induction of JNK phosphorylation in human K562 cells assessed as ratio of phosphorylated JNK to beta-tubulin at 2.5 uM after 24 hrs by Western blot analysis (reference value: 1); type: cell-based
K562 [39] = test: Induction of apoptosis in human K562 cells assessed as chromatin condensation at 0.75 to 2.5 uM after 24 to 48 hrs by Hoechst 33342/DAPI staining based fluorescence microscopic analysis; type: functional, cell-based
[40] = target: Serine-protein kinase ATM (Homo sapiens) (UniProt Q13315); test: Activation of ATM phosphorylation in human K562 cells assessed as ratio of phosphorylated ATM to beta-tubulin level at 750 nM after 24 hrs by Western blot analysis (reference value: 0.2); type: cell-based
16HBE14o- = test: Cytotoxicity against human 16HBE cells after 24 hrs by MTT assay; type: cell-based
[41] = target: Serine-protein kinase ATM (Homo sapiens) (UniProt Q13315); test: Activation of ATM phosphorylation in human K562 cells assessed as ratio of phosphorylated H2AX at S139 to beta-tubulin level at 2.5 uM after 24 hrs by Western blot analysis (reference value: 1); type: cell-based
K562 [42] = test: Induction of apoptosis in human K562 cells assessed as cell shrinkage at 0.75 to 2.5 uM after 24 to 48 hrs by Hoechst 33342/DAPI staining based fluorescence microscopic analysis; type: functional
[43] = Selectivity index, ratio of IC50 for human 16HBE cells to IC50 for human MDA-MB-231 cells; type: functional

Work on `NC(=O)c1ccccc1NC(=O)c1ccc(-c2ccccc2)cc1` yielded an inhibition of growth at 10 µM (K562 [1]) of 21.6%.

`NC(=O)c1cc(Cl)ccc1NC(=O)c1ccccc1-c1ccccc1` showed an inhibition of growth at 10 µM (K562 [1]) of 47.3%.

With `NC(=O)c1cc(I)ccc1NC(=O)c1ccccc1-c1ccccc1` the Ratio [2] was 1.6, the Activity (K562 [3]) was 37.1% and the Activity (K562 [4]) was “Active”. The Ratio [5] was 1.4, the Activity (K562 [6]) was 14.9% and the Activity (K562 [7]) was 48.6%. The “Ratio IC50” value [8] was 60, the Ratio (K562 [9]) was 0.5 and the “Ratio IC50” value [10] was 3. The Activity (K562 [11]) was “inactive”, the Ratio [12] was 0.8 and the Activity (K562 [13]) was 4%. For the same compound, the Activity (K562 [14]) was 2.7%, the Activity (K562 [15]) was “Active” and the Ratio [16] was 2.5. The IC50 (HT-29) was 10 µM, the Ratio [17] was 2.2 and the Activity (K562 [18]) was 50.5%. The Activity (K562 [19]) was 54.9%, the Activity (K562 [20]) was 2.2% and the Activity (K562 [21]) was 74.6%. For the same compound, the Activity (K562 [22]) was 13.4%, the Ratio [23] was 0.5 and the Activity (K562 [24]) was “Active”. For the same compound, the Activity (K562 [25]) was “Active”, the Ratio (K562 [26]) was 0.8 and the Activity (K562 [27]) was 30.5%. It also gave a Ratio (K562 [28]) of 0.8, a Ratio [29] of 1.5 and an inhibition of growth at 10 µM (K562 [1]) of 85%. The Activity (K562 [30]) was “Active”, the Activity (K562 [31]) was “Active” and the Ratio [32] was 0.9. The IC50 (K562 [33]) was 0.5 µM, the Ratio (K562 [34]) was 0.5 and the IC50 (K562 [35]) was 0.5 µM. It also gave an Activity (K562 [36]) of 26.2%, an IC50 (MDA-MB-231) of 10 µM and a Ratio [37] of 1.2. The Ratio [38] was 1.2, the Activity (K562 [39]) was “Active” and the Ratio [40] was 1. The IC50 (16HBE14o-) was 30 µM, the Ratio [41] was 2.1 and the Activity (K562 [42]) was “Active”. For the same compound, the “Ratio IC50” value [43] was 3.

`Cc1ccc(NC(=O)c2ccccc2-c2ccccc2)c(C(N)=O)c1` gave an inhibition of growth at 10 µM (K562 [1]) of 48.9%.

For `COc1cc(NC(=O)c2ccccc2-c2ccccc2)c(C(N)=O)cc1OC`, the inhibition of growth at 10 µM (K562 [1]) was 46%.

Compound `COc1cc(NC(=O)c2ccc(-c3ccccc3)cc2)c(C(N)=O)cc1OC` has an inhibition of growth at 10 µM (K562 [1]) of 48%.

With `NC(=O)c1cc(I)ccc1NC(=O)c1ccc(-c2ccccc2)cc1` the inhibition of growth at 10 µM (K562 [1]) was 15% and the IC50 (K562 [35]) was 15 µM.

In the case of `NC(=O)c1cc(Cl)ccc1NC(=O)[C@@H]1C[C@H]1c1ccccc1`, the inhibition of growth at 10 µM (K562 [1]) is reported as 24%.

`COc1cc(NC(=O)[C@@H]2C[C@H]2c2ccccc2)c(C(N)=O)cc1OC` showed an inhibition of growth at 10 µM (K562 [1]) of 26.7%.
